Holding throughout (assay type): cell-based
For experiment [1], the system named is Acinetobacter baumannii ATCC 19606. Briefly: MIC/MBC microdilution. As to conditions: NB, highest concentration 100 µM. The method, then: (§1) The microdilution method ([25]) was used to measure the MIC of mycoidesin against indicator strains (Table S2). HPLC-purified mycoidesin was weighed and dissolved in a liquid culture medium to prepare various concentrations of mycoidesin (200.00, 100.00, 50.00, 25.00, 12.50, 6.25, 3.13, 1.56, 0.78, 0.39, 0.20, and 0.10 µM). A volume of 50 µL of different concentrations of mycoidesin solutions and 50 µL culture (1 × 10^6 CFU/mL) of the indicator strain were mixed in 96-well plates. The final concentrations of mycoidesin were 100.00, 50.00, 25.00, 12.50, 6.25, 3.13, 1.56, 0.78, 0.39, 0.20, 0.10, and 0.05 µM. […] The minimum bactericidal concentration (MBC) was the lowest concentration that killed 99.9% of the bacterial population. Nisin A was purified (Cayman Chemical, USA) as previously described ([26]) and was used to measure and compare the MIC values of L. monocytogenes strains and mycoidesin.

In experiment [2] the test system is Escherichia coli ATCC 25922. As to the kind of experiment: MIC/MBC microdilution. As to conditions: NB, highest concentration 100 µM. As to the method: as §1
In experiment [3] the test system is Klebsiella pneumoniae CMCC 46117. As to the kind of experiment: MIC/MBC microdilution. As to conditions: NB, highest concentration 100 µM. The method, then:
as §1

For experiment [4], the system named is Pseudomonas aeruginosa ATCC 27853. Briefly: MIC/MBC microdilution. Conditions: NB, highest concentration 100 µM. The method, then: as §1
In experiment [5] the test system is Salmonella Typhimurium ATCC 14028. As to the kind of experiment: MIC/MBC microdilution. Conditions: NB, highest concentration 100 µM. The method, then:
as §1

Experiment [6] deals with Salmonella enterica serotype Paratyphi CMCC 50093. Briefly: MIC/MBC microdilution. Conditions: NB, highest concentration 100 µM. As to the method:
as §1

Experiment [7] deals with Serratia marcescens CMCC 41002. Briefly: MIC/MBC microdilution. As to conditions: NB, highest concentration 100 µM. The method, then:
as §1

The subject of experiment [8] is Shigella serogroups CMCC 51105. As to the kind of experiment: MIC/MBC microdilution. Conditions: NB, highest concentration 100 µM. As to the method: as §1
Experiment [9] deals with Bacillus cereus CMCC63301. As to the kind of experiment: Time-kill curves (OD600 and CFU). An excerpt:
Cell growth was monitored hourly by measuring CFU on TSB plates and OD600 values of the cultures.

Where [10] appears, read: lowest concentration that killed 99.9%.

As for `C/C=C1\NC(=O)CNC(=O)[C@H](CCSC)NC(=O)[C@@H]2CS[C@@H](C)[C@@H](NC(=O)[C@@H]3CSC[C@@H](NC(=O)[C@H](CC(C)C)NC(=O)[C@H](CC(N)=O)NC(=O)[C@@H](N)Cc4ccc(O)cc4)C(=O)N[C@@H](C)C(=O)N[C@@H](C)C(=O)N[C@@H]([C@@H](C)CC)C(=O)N[C@@H](C)C(=O)N[C@@H](CC(=O)O)C(=O)N[C@@H](C)C(=O)N[C@@H](C)C(=O)NCC(=O)N[C@@H](CC(C)C)C(=O)N[C@@H](CCCCN)C(=O)NCC(=O)N[C@@H](CC(N)=O)C(=O)N[C@@H](Cc4ccc(O)cc4)C(=O)NCC(=O)N[C@@H](CCCCN)C(=O)N[C@@H](Cc4ccccc4)C(=O)N3)C(=O)N[C@@H](Cc3ccc(O)cc3)C(=O)N[C@H](CSC[C@@H](C(=O)NCC(=O)N[C@@H](CO)C(=O)O)NC(=O)[C@H](CO)NC(=O)[C@H](C(C)C)NC1=O)C(=O)N[C@@H](C)C(=O)N[C@@H](CCC(=O)O)C(=O)N2` [mycoidesin], the MBC result in experiment [1] (setting [10]), in [2] (setting [10]), in experiment [3] (setting [10]), in [4] (setting [10]), in [5] (setting [10]) and in [6] (setting [10]) was “NA (No activity was detected even at the highest concentration of mycoidesin (100 µM))” throughout. The MBC result in experiment [7] (setting [10]) and in experiment [8] (setting [10]) was “NA (No activity was detected even at the highest concentration of mycoidesin (100 µM))” each time. Besides, the MIC entry in experiment [1] (microdilution, 30°C, 16 h) was “NA (No activity was detected even at the highest concentration of mycoidesin (100 µM))”; in [2] (microdilution, 30°C, 16 h), “NA (No activity was detected even at the highest concentration of mycoidesin (100 µM))”; in experiment [3] (microdilution, 30°C, 16 h) it was “NA (No activity was detected even at the highest concentration of mycoidesin (100 µM))”; in experiment [4] (microdilution, 30°C, 16 h), “NA (No activity was detected even at the highest concentration of mycoidesin (100 µM))”; in experiment [5] (microdilution, 30°C, 16 h), “NA (No activity was detected even at the highest concentration of mycoidesin (100 µM))”; in experiment [6] (microdilution, 30°C, 16 h), “NA (No activity was detected even at the highest concentration of mycoidesin (100 µM))”. Moreover, the MIC entry in experiment [7] (microdilution, 30°C, 16 h) is on record as “NA (No activity was detected even at the highest concentration of mycoidesin (100 µM))”; in experiment [8] (microdilution, 30°C, 16 h), “NA (No activity was detected even at the highest concentration of mycoidesin (100 µM))”. Besides, the effect on growth entry is listed as “suppressed the growth” in experiment [9] (1× MIC (1.56 µM), TSB, 30°C, 3 h, OD600 and CFU); “completely inhibited its growth” in experiment [9] (2× MIC (3.13 µM), TSB, 30°C, 3 h, OD600 and CFU). In addition, the “effect on viable cells” value in experiment [9] (4× and 8× MIC (6.25 and 12.50 µM), TSB, 30°C, 3 h, OD600 and CFU) is “caused cell death after 2 h of treatment”. Moreover, the “type of antimicrobial effect” value in [9] (high concentrations (2×–8× MIC, 3.13–12.5 µM)) is listed as “bactericidal effect”; in [9] (low concentration (1× MIC, 1.56 µM)) it was “bacteriostatic effect”.

The values are drawn from paper PMC12016531 (Applied and Environmental Microbiology, 2025).
